We go through 23 molecules from patent publication US11840528B2 (Hoffmann-La Roche Inc., priority 2018, dated 2023).

Molecules are shown by their SMILES.

Assay [1] concerns the target T1, h-GABA-A α5β3γ2 (Homo sapiens, UniProt P18507+P31644). The assay can be described thus: Two-electrode voltage clamp electrophysiology in Xenopus laevis oocytes expressing GABAA receptors, modulation of GABA EC20 current. Details: host or cells: Xenopus laevis oocytes micro-injected with RNA transcripts of the subunits. The conditions noted are these: Table 1; for Efficacy (GABA) %: % modulation of GABA EC20 = 100*(Fold increase-1); for Fold increase h-GABA-A α5β3γ2 oocyte: test compound at approx. 30 fold its Ki, GABA at EC20. In kind it is cell-based. In short, it runs like this:
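Modulation is reported as % of the GABA EC20 current, calculated as 100*(Fold increase−1) from the peak ratio between a second GABA response carrying compound (applied at roughly 30-fold Ki) and a preceding control response. Oocytes expressing human α5β3γ2 were clamped at −80 mV at room temperature, 3–5 days after injection.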
For orientation: In two-electrode clamp one electrode senses voltage and the other passes current.

The target of assay [2] is T1, h-GABA-A α5β3γ2. The assay can be described thus: [3H]flumazenil competition binding assay, membranes of HEK293 cells expressing GABAA receptors. The note with it: displacement of [3H]-Flumazenil 0.5 nM, HEK293 cells expressing human receptors, mean of two determinations; Table 1. The method in brief:
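Receptor source: human α5β3γ2 transiently transfected into HEK293 cells, membranes in pH 7.5 Krebs-tris. Filtration through GF/C, then scintillation counting.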
In general terms: Displacement assays read how much labelled ligand stays bound in the presence of the test substance.

For orientation: Ki means a measure of affinity in units of concentration, obtained from inhibition or displacement. High values mean weaker binding, low ones tighter binding. On to `Cc1onc(-c2ncc(Cl)cc2F)c1Cn1ncc(N2CCN(C(=O)C3(C)CC3)CC2)cc1=O` [Example 53, 2-[[3-(5-chloro-3-fluoro-2-pyridyl)-5-methyl-isoxazol-4-yl]methyl]-5-[4-(1-methylcyclopropanecarbonyl)piperazin-1-yl]pyridazin-3-one], for which, in assay [1], the “Efficacy (GABA) %” value was found to be 152% and the “Fold increase h-GABA-A α5β3γ2 oocyte” value came to 2.52. The molecule also yielded a Ki in assay [2] of 0.0098 µM.
`Cc1ccc(-c2noc(C)c2Cn2ncc(N3CCC(n4c(C)nnc4C)CC3)cc2=O)cn1` [Example 54, 5-[4-(3,5-dimethyl-1,2,4-triazol-4-yl)-1-piperidyl]-2-[[5-methyl-3-(6-methyl-3-pyridyl)isoxazol-4-yl]methyl]pyridazin-3-one]: in assay [1], the “Efficacy (GABA) %” value was 175% and the “Fold increase h-GABA-A α5β3γ2 oocyte” value is given as 2.75. In assay [2], this molecule had a Ki of 0.0108 µM.
For `Cc1onc(-c2ccc(F)cc2)c1Cn1ncc(N2CCC(n3c(C)nnc3C)CC2)cc1=O` [Example 55, 5-(4-(3,5-Dimethyl-4H-1,2,4-triazol-4-yl)piperidin-1-yl)-2-((3-(4-fluorophenyl)-5-methylisoxazol-4-yl)methyl)pyridazin-3(2H)-one], in that order: 85%, 1.85 and 0.0434 µM.
Take `Cc1ccc(-c2noc(C)c2Cn2ncc(N3CC[C@@H](C(=O)NC4CC4)C3)cc2=O)cn1` [Example 56, (3R)—N-cyclopropyl-1-[1-[[5-methyl-3-(6-methyl-3-pyridyl)isoxazol-4-yl]methyl]-6-oxo-pyridazin-4-yl]pyrrolidine-3-carboxamide]: in assay [1], the “Efficacy (GABA) %” value is reported as 247% and the “Fold increase h-GABA-A α5β3γ2 oocyte” value was found to be 3.47. The Ki in assay [2] amounted to 0.0334 µM.
Consider `Cc1ccc(-c2noc(C)c2Cn2ncc(N3CC[C@H](C(=O)NC4CC4)C3)cc2=O)cn1` [Example 57, (3S)—N-cyclopropyl-1-[1-[[5-methyl-3-(6-methyl-3-pyridyl)isoxazol-4-yl]methyl]-6-oxo-pyridazin-4-yl]pyrrolidine-3-carboxamide], for which, in assay [1], the “Efficacy (GABA) %” value is 198% and the “Fold increase h-GABA-A α5β3γ2 oocyte” value is recorded as 2.98. This molecule also returned a Ki in assay [2] of 0.0562 µM.
For the molecule `Cc1ccc(-c2noc(C)c2Cn2ncc(N3CC4(C3)CN(C3CC3)C4)cc2=O)cn1` [Example 58, 5-(2-cyclopropyl-2,6-diazaspiro[3.3]heptan-6-yl)-2-[[5-methyl-3-(6-methyl-3-pyridyl)isoxazol-4-yl]methyl]pyridazin-3-one], in assay [1], the “Efficacy (GABA) %” value came out at 209% and the “Fold increase h-GABA-A α5β3γ2 oocyte” value was determined as 3.09. In assay [2], this molecule had a Ki of 0.0704 µM.
Consider `Cc1ccc(-c2noc(C)c2Cn2ncc(N3CCN(C4CC4)[C@H](C)C3)cc2=O)cn1` [Example 59, 5-[(3R)-4-cyclopropyl-3-methyl-piperazin-1-yl]-2-[[5-methyl-3-(6-methyl-3-pyridyl)isoxazol-4-yl]methyl]pyridazin-3-one], for which, in assay [1], the “Efficacy (GABA) %” value was determined as 157% and the “Fold increase h-GABA-A α5β3γ2 oocyte” value is 2.57. The Ki in assay [2] came out at 0.0154 µM.
For `Cc1ccc(-c2noc(C)c2Cn2ncc(N3CCN(C4CC4)[C@@H](C)C3)cc2=O)cn1` [Example 60, 5-[(3S)-4-cyclopropyl-3-methyl-piperazin-1-yl]-2-[[5-methyl-3-(6-methyl-3-pyridyl)isoxazol-4-yl]methyl]pyridazin-3-one], in that order: 97%, 1.97 and 0.0102 µM.
In the case of `COc1ccccc1C1CCN(c2cnn(Cc3c(-c4ccc(C)nc4)noc3C)c(=O)c2)CC1` [Example 61, 5-[4-(2-methoxyphenyl)-1-piperidyl]-2-[[5-methyl-3-(6-methyl-3-pyridyl)isoxazol-4-yl]methyl]pyridazin-3-one], in assay [1], the “Efficacy (GABA) %” value is listed as 76% and the “Fold increase h-GABA-A α5β3γ2 oocyte” value was 1.76. Also, the Ki in assay [2] is 0.0154 µM.
As for `Cc1cc(-c2noc(C)c2Cn2ncc(N3C[C@@H](C)O[C@@H](C)C3)cc2=O)no1` [Example 62, 5-(cis-2,6-dimethylmorpholin-4-yl)-2-[[5-methyl-3-(5-methylisoxazol-3-yl)isoxazol-4-yl]methyl]pyridazin-3-one], in assay [1], the “Efficacy (GABA) %” value is on record as 88% and the “Fold increase h-GABA-A α5β3γ2 oocyte” value came to 1.88. Further, affinity in assay [2] was put at a Ki of 0.0006 µM.
Regarding `Cc1cc(-c2noc(C)c2Cn2ncc(N3CCN(C4CC4)CC3)cc2=O)no1` [Example 63, 5-(4-cyclopropylpiperazin-1-yl)-2-[[5-methyl-3-(5-methylisoxazol-3-yl)isoxazol-4-yl]methyl]pyridazin-3-one], in assay [1], the “Efficacy (GABA) %” value was determined as 41% and the “Fold increase h-GABA-A α5β3γ2 oocyte” value turned out to be 1.41. This molecule also gave a Ki in assay [2] of 0.0059 µM.
With `Cc1ccc(-c2noc(C)c2Cn2ncc(N(C)C3CC3)cc2=O)cn1` [Example 64, 5-(cyclopropyl(methyl)amino)-2-((5-methyl-3-(6-methylpyridin-3-yl)isoxazol-4-yl)methyl)pyridazin-3(2H)-one], in assay [1], the “Efficacy (GABA) %” value is 108% and the “Fold increase h-GABA-A α5β3γ2 oocyte” value was 2.08. The same molecule showed a Ki in assay [2] of 0.0018 µM.
Regarding `Cc1ccc(-c2noc(C)c2Cn2ncc(N(C)C3COC3)cc2=O)cn1` [Example 65, 5-(methyl(oxetan-3-yl)amino)-2-((5-methyl-3-(6-methylpyridin-3-yl)isoxazol-4-yl)methyl)pyridazin-3(2H)-one], in assay [1], the “Efficacy (GABA) %” value was 142% and the “Fold increase h-GABA-A α5β3γ2 oocyte” value is given as 2.42. In assay [2], this molecule registered a Ki of 0.0047 µM.
In the case of `Cc1onc(-c2ccc(C(F)(F)F)nc2)c1Cn1ncc(N2CCN(C3CC3)CC2)cc1=O` [Example 66, 5-(4-cyclopropylpiperazin-1-yl)-2-[[5-methyl-3-[6-(trifluoromethyl)-3-pyridyl]isoxazol-4-yl]methyl]pyridazin-3-one], in assay [1], the “Efficacy (GABA) %” value amounted to 121% and the “Fold increase h-GABA-A α5β3γ2 oocyte” value is 2.21. Moreover, in assay [2], the affinity corresponds to a Ki of 0.0264 µM.
On the same counts, the results for `Cc1ccc(-c2noc(C)c2Cn2ncc(-c3ccccc3)cc2=O)cn1` [Example 67, 2-((5-methyl-3-(6-methylpyridin-3-yl)isoxazol-4-yl)methyl)-5-phenylpyridazin-3(2H)-one] are 107%, 2.07 and 0.0105 µM.
With `Cc1ccc(-c2noc(C)c2Cn2ncc(-c3ccc(F)cc3)cc2=O)cn1` [Example 68, 5-(4-fluorophenyl)-2-[[5-methyl-3-(6-methylpyridin-3-yl)-1,2-oxazol-4-yl]methyl]pyridazin-3-one], in assay [1], the “Efficacy (GABA) %” value was determined as 71% and the “Fold increase h-GABA-A α5β3γ2 oocyte” value turned out to be 1.71. The affinity in assay [2] corresponds to a Ki of 0.0119 µM.
As to `Cc1ccc(-c2noc(C)c2Cn2ncc(N3CC4(CCC4)C3)cc2=O)cn1` [Example 69, 5-(2-azaspiro[3.3]heptan-2-yl)-2-[[5-methyl-3-(6-methyl-3-pyridyl)isoxazol-4-yl]methyl]pyridazin-3-one], in assay [1], the “Efficacy (GABA) %” value is 155% and the “Fold increase h-GABA-A α5β3γ2 oocyte” value amounted to 2.55. The same molecule registered an inhibition constant (Ki) in assay [2] of 0.0389 µM.
Regarding `Cc1ccc(-c2noc(C)c2Cn2ncc(N(C)CC(C)(C)O)cc2=O)cn1` [Example 70, 5-((2-hydroxy-2-methylpropyl)(methyl)amino)-2-((5-methyl-3-(6-methylpyridin-3-yl)isoxazol-4-yl)methyl)pyridazin-3(2H)-one], in assay [1], the “Efficacy (GABA) %” value was determined as 106% and the “Fold increase h-GABA-A α5β3γ2 oocyte” value is 2.06. For the same molecule, in assay [2], the affinity corresponds to a Ki of 0.0006 µM.
Consider `C[C@@H]1CN(c2cnn(Cc3conc3-c3ccc(C(F)(F)F)nc3)c(=O)c2)C[C@H](C)O1` [Example 72, 5-(cis-2,6-dimethylmorpholin-4-yl)-2-[[3-[6-(trifluoromethyl)-3-pyridyl]isoxazol-4-yl]methyl]pyridazin-3-one], for which, in assay [1], the “Efficacy (GABA) %” value is recorded as 167% and the “Fold increase h-GABA-A α5β3γ2 oocyte” value is recorded as 2.67. In assay [2], this molecule registered a Ki of 0.0402 µM.
`Cc1ccc(-c2noc(C)c2Cn2ncc(N3CCNC4(CC4)C3)cc2=O)cn1` [Example 74, 5-(4,7-diazaspiro[2.5]octan-7-yl)-2-[[5-methyl-3-(6-methyl-3-pyridyl)isoxazol-4-yl]methyl]pyridazin-3-one]: in assay [1], the “Efficacy (GABA) %” value is 132% and the “Fold increase h-GABA-A α5β3γ2 oocyte” value stood at 2.32. The molecule also returned a Ki in assay [2] of 0.0004 µM.
As for `Cc1ccc(-c2noc(C)c2Cn2ncc(N3CCNCC3)cc2=O)cn1` [Example 75, 2-[[5-methyl-3-(6-methyl-3-pyridyl)isoxazol-4-yl]methyl]-5-piperazin-1-yl-pyridazin-3-one], in assay [1], the “Efficacy (GABA) %” value came out at 104% and the “Fold increase h-GABA-A α5β3γ2 oocyte” value is given as 2.04. Also, the inhibition constant (Ki) in assay [2] came out at 0.0036 µM.
For `COc1ccc(-c2cnn(Cc3c(-c4ccc(C)nc4)noc3C)c(=O)c2)cc1` [Example 76, 5-(4-methoxyphenyl)-2-[[5-methyl-3-(6-methylpyridin-3-yl)-1,2-oxazol-4-yl]methyl]pyridazin-3-one], in assay [1], the “Efficacy (GABA) %” value turned out to be 71% and the “Fold increase h-GABA-A α5β3γ2 oocyte” value is 1.71. In addition, affinity in assay [2] was put at a Ki of 0.0064 µM.
For the molecule `Cc1ccc(-c2noc(C)c2Cn2ncc(N3CC4(CNC4)C3)cc2=O)cn1` [Example 77, 5-(2,6-diazaspiro[3.3]heptan-2-yl)-2-[[5-methyl-3-(6-methyl-3-pyridyl)isoxazol-4-yl]methyl]pyridazin-3-one], in assay [1], the “Efficacy (GABA) %” value is 149% and the “Fold increase h-GABA-A α5β3γ2 oocyte” value came out at 2.49. Further, the affinity in assay [2] corresponds to a Ki of 0.0304 µM.
